Test results as given in patent EP1614683B1, “Indazole compounds and pharmaceutical compositions for inhibiting protein kinases, and methods for their use” (priority 1999, dated 2001).
Like-named read-outs stand apart in the source and are kept apart here.

Conditions: mouse, in vivo

| SMILES | AUCleast (ip, 25 mg/kg, pH 2.3) [ng·h/mL] | T1/2 (ip, 25 mg/kg, pH 2.3) [h] | AUCleast (po, 50 mg/kg, pH 2.3) [ng·h/mL] | T1/2 (po, 50 mg/kg, pH 2.3) [h] | AUCleast (po, 25 mg/kg, pH 2.3) | T1/2 (po, 25 mg/kg, pH 2.3) [h] | other results |
| --- | --- | --- | --- | --- | --- | --- | --- |
| Cc1cccc(C(=O)Nc2cccc(Oc3ccc4c(/C=C/c5ccccc5)n[nH]c4c3)c2)c1 [5 (b)] |  |  |  |  |  |  | AUCleast (po, 10 mg/kg, pH 2.3): 61 ng·h/mL; T1/2 (po, 10 mg/kg, pH 2.3): 3.1 h |
| O=C(Nc1cccc(Cl)c1)c1ccccc1Sc1ccc2c(/C=C/c3ccccn3)n[nH]c2c1 [33 (d)] | 5080 | 1.6 | 4744 | 0.9 |  |  | Cmin (7 hr conc.) (po, 50 mg/kg, 7 h, pH 2.3): 8 ng/mL |
| O=C(NC1CC1)c1ccccc1Sc1ccc2c(/C=C/c3ccccn3)n[nH]c2c1 [33 (e)] | 14323 | 1.0 | 13290 | 0.7 |  |  |  |
| O=C(NCC(F)(F)F)c1ccccc1Sc1ccc2c(/C=C/c3ccccn3)n[nH]c2c1 [33 (f)] | 1887 | 2.4 | 1436 | 0.7 |  |  | Cmin (7 hr conc.) (ip, 25 mg/kg, 7 h, pH 2.3): 6 ng/mL; Cmin (7 hr conc.) (po, 50 mg/kg, 7 h, pH 2.3): 3 ng/mL |
| COc1cccc(CNC(=O)c2ccccc2Sc2ccc3c(/C=C/c4ccccn4)n[nH]c3c2)c1 [35 (aa)] |  |  |  |  | 4036 ng·h/mL | 2.1 |  |
| CC(C)NC(=O)c1ccccc1Sc1ccc2c(/C=C/c3ccccn3)n[nH]c2c1 [35 (b)] | 2840 | 0.8 | 4048 | 0.8 |  |  |  |
| O=C(NC1CCC1)c1ccccc1Sc1ccc2c(/C=C/c3ccccn3)n[nH]c2c1 [35 (c)] | 9408 | 3.2 | 4744 | 4.9 |  |  |  |
| C#CCNC(=O)c1ccccc1Sc1ccc2c(/C=C/c3ccccn3)n[nH]c2c1 [35 (cc)] | 2223 | 1.4 | 1718 | 0.9 |  |  | Cmin (7 hr conc.) (ip, 25 mg/kg, 7 h, pH 2.3): 6 ng/mL; Cmin (7 hr conc.) (po, 50 mg/kg, 7 h, pH 2.3): 5 ng/mL |
| CCONC(=O)c1ccccc1Sc1ccc2c(/C=C/c3ccccn3)n[nH]c2c1 [35 (dd)] | > 23046 | 4.1 |  |  | > 6521 ng·h/mL | 1.4 | AUCleast (po, 25 mg/kg): 1360 ng·h/mL; T1/2 (po, 25 mg/kg): 2.0 h |
| Cn1cccc1C(=O)NNC(=O)c1ccccc1Sc1ccc2c(/C=C/c3ccccn3)n[nH]c2c1 [35 (e)] | 2409 | 1.8 | 1503 | 0.9 |  |  | Cmin (7 hr conc.) (po, 50 mg/kg, 7 h, pH 2.3): 6 ng/mL |
| C=C(C)CNC(=O)c1ccccc1Sc1ccc2c(/C=C/c3ccccn3)n[nH]c2c1 [35 (ee)] | 546 | 1.5 |  |  | 157 ng·h/mL | 14.6 | Cmin (7 hr conc.) (ip, 25 mg/kg, 7 h, pH 2.3): 2 ng/mL; Cmin (7 hr conc.) (po, 25 mg/kg, 7 h, pH 2.3): 9 ng/mL |
| O=C(NCc1ccccc1F)c1ccccc1Sc1ccc2c(/C=C/c3ccccn3)n[nH]c2c1 [35 (f)] | 397 | 3.8 | 358 | 3.6 |  |  |  |
| O=C(NCc1cccc(F)c1)c1ccccc1Sc1ccc2c(/C=C/c3ccccn3)n[nH]c2c1 [35 (ff)] | > 6301 |  |  |  | Blq |  | Cmin (7 hr conc.) (po, 25 mg/kg, pH 2.3): blq |
| COc1ccc(CNC(=O)c2ccccc2Sc2ccc3c(/C=C/c4ccccn4)n[nH]c3c2)cc1 [35 (g)] |  |  |  |  | 231 ng·h/mL | 16.1 |  |
| Cc1ccc(CNC(=O)c2ccccc2Sc2ccc3c(/C=C/c4ccccn4)n[nH]c3c2)o1 [35 (h)] | 59 | 1.5 | 26 |  |  |  | Cmin (7 hr conc.) (ip, 25 mg/kg, 7 h, pH 2.3): 1 ng/mL; Cmin (7 hr conc.) (po, 50 mg/kg, 7 h, pH 2.3): 2 ng/mL |
| O=C(NCCc1cccs1)c1ccccc1Sc1ccc2c(/C=C/c3ccccn3)n[nH]c2c1 [35 (hh)] |  |  |  |  | 292 ng·h/mL | 1.7 | Cmin (7 hr conc.) (po, 25 mg/kg, 7 h, pH 2.3): 5 ng/mL |
| C=CCONC(=O)c1ccccc1Sc1ccc2c(/C=C/c3ccccn3)n[nH]c2c1 [35 (j)] | 9531 | 1.3 | 1328 | 4.5 |  |  | Cmin (7 hr conc.) (po, 50 mg/kg, 7 h, pH 2.3): 5 ng/mL |

| SMILES | AUCleast (ip, 25 mg/kg, pH 2.3) [ng·h/mL] | T1/2 (ip, 25 mg/kg, pH 2.3) [h] | AUCleast (po, 50 mg/kg, pH 2.3) [ng·h/mL] | T1/2 (po, 50 mg/kg, pH 2.3) [h] | AUCleast (po, 25 mg/kg, pH 2.3) | T1/2 (po, 25 mg/kg, pH 2.3) [h] | other results |
| --- | --- | --- | --- | --- | --- | --- | --- |
| CC(C)ONC(=O)c1ccccc1Sc1ccc2c(/C=C/c3ccccn3)n[nH]c2c1 [35 (k)] | 2640 | 1.4 | 5529 | 1.4 |  |  |  |
| O=C(NNC(=O)c1ccccc1Sc1ccc2c(/C=C/c3ccccn3)n[nH]c2c1)c1cccs1 [35 (m)] | 226 | 4.0 |  |  | 10 ng·h/mL |  | Cmin (7 hr conc.) (po, 25 mg/kg, 420 min, pH 2.3): 0 ng/mL |
| O=C(NCc1ccncc1)c1ccccc1Sc1ccc2c(/C=C/c3ccccn3)n[nH]c2c1 [35 (p)] |  |  |  |  | 1435 ng·h/mL | 1.3 | Cmin (7 hr conc.) (po, 25 mg/kg, 7 h, pH 2.3): 5 ng/mL |
| CONC(=O)c1ccccc1Sc1ccc2c(/C=C/c3ccccn3)n[nH]c2c1 [35 (r)] |  |  |  |  | 4261 ng·h/mL | 1.3 |  |
| CCCONC(=O)c1ccccc1Sc1ccc2c(/C=C/c3ccccn3)n[nH]c2c1 [35 (t)] |  |  |  |  | 3199 ng·h/mL | 1.1 |  |
| O=C(NCC1CC1)c1ccccc1Sc1ccc2c(/C=C/c3ccccn3)n[nH]c2c1 [35 (v)] | 4865 | 0.9 | >2946 | 1.0 |  |  |  |
| CCNC(=O)c1ccccc1Sc1ccc2c(/C=C/c3ccccn3)n[nH]c2c1 [35 (x)] | 951 | 3.2 | 3516 | 0.9 |  |  |  |
| O=C(Nc1nccs1)c1ccccc1Sc1ccc2c(/C=C/c3ccccn3)n[nH]c2c1 [35 (y)] | 159 | 1.2 | 58 | 1.2 |  |  | Cmin (7 hr conc.) (ip, 25 mg/kg, 7 h, pH 2.3): 2 ng/mL; Cmin (7 hr conc.) (po, 50 mg/kg, 7 h, pH 2.3): 1 ng/mL |
| CCOCCNC(=O)c1ccccc1Sc1ccc2c(/C=C/c3ccccn3)n[nH]c2c1 [35 (z)] | 837 | 1.8 | 1001 | 1.6 |  |  |  |
| Cn1ccnc1/C=N/NC(=O)c1ccccc1Sc1ccc2c(/C=C/c3ccccn3)n[nH]c2c1 [36 (a)] |  |  |  |  | 605 ng·h/mL | 1.5 |  |
| CC(C)ONC(=O)c1cccc(F)c1Sc1ccc2c(/C=C/c3ccccn3)n[nH]c2c1 [37 (c)] |  |  |  |  | 2419 ng·h/mL | 1.2 | Cmin (7 hr conc.) (po, 25 mg/kg, 7 h, pH 2.3): 9 ng/mL |
| CNC(=O)c1ccccc1Nc1ccc2c(/C=C/c3ccccn3)n[nH]c2c1 [39 (a)] |  |  |  |  | > 14848 ng·h/mL | 1.4 |  |
| C#CCNC(=O)c1ccccc1Nc1ccc2c(/C=C/c3ccccn3)n[nH]c2c1 [39 (b)] |  |  |  |  | > 30972 ng·h/mL | 11.8 |  |
| O=C(Nc1cccc(C(=O)c2ccc3c(/C=C/c4ccccn4)n[nH]c3c2)c1)c1ccncc1 [41 (b)] | > 5868 | 4.7 | 759 | 1.1 |  |  | Cmin (7 hr conc.) (po, 50 mg/kg, 7 h, pH 2.3): 6 ng/mL |
| CC(C)=CC(=O)Nc1cccc(C(=O)c2ccc3c(/C=C/c4ccccn4)n[nH]c3c2)c1 [41 (dd)] |  |  |  |  | 654 ng·h/mL | 0.8 | Cmin (7 hr conc.) (po, 25 mg/kg, 7 h, pH 2.3): 1 ng/mL |
| C=CCn1nc(C)cc1C(=O)Nc1cc(C(=O)c2ccc3c(/C=C/c4ccccn4)n[nH]c3c2)ccc1C [41 (ff)] |  |  |  |  | 9176 ng·h/mL | 2.0 |  |
